According to patent US12534707B2, “Method for generating cardiac tissue mimetics” (GENOME BIOLOGICS UG, priority 2019, dated 2026):
“Also recorded” adds a separate entry of the source.

Experiments:
[1] = system: cardiac tissue mimetics (CTMs); assay: Seahorse assay (OCR, ECAR) of CTMs; format: cell-based, rat, human; details: PE-treated vs control CTMs
Description: The Agilent Seahorse XFe96 spheroid microplate was coated with Poly-D Lysine 100 μg/mL following the manual instruction. 1×KHB medium (111 mM NaCl, 4.7 mM KCl, 2 mM MgSO4, 1.2 mM Na2HPO4, 2.5 mM D-Glucose, 0.5 mM carnitine) supplemented with 6 mM D-Glucose was prepared prior the experiment. CTMs were washed twice with KHB medium and every single CTM was then transferred directly into each well of XFe96 spheroid microplate containing 175 μL of KHB medium. CTMs were centered into the micro-chamber and incubated at 37° C. in non-CO2 incubator for 1 hour. The Seahorse XF Cell Mito Stress Test was performed using sequential injection of Oligomycin (2.5 μM, Sigma, O4876), FCCP (2.0 μM, Sigma, C2920) and Antimycin A (0.5 μM, Sigma, A8674) following a 3-min-mixing and 3-min-measuring cycles for up to 2 hours. Oxygen consumption rate (OCR) and Extracellular acidification rate (ECAR) were measured and calculated using Seahorse XFe96 Analyzers (Agilent Technologies).

[2] = system: cardiac tissue mimetics (CTMs); assay: CTM size measurement; details: 200 μM PE, 10 days, vs untreated control; FIG. 4
[3] = system: cardiac tissue mimetics (CTMs); assay: Lactate dehydrogenase assay and toxicity assay (phospho-Histone H2A.X) of CTMs; format: cell-based, rat, human
Description: Media of CTMs were replaced completely with fresh medium 24 h before performing the assays. After 24 h, supernatants were collected and in maximum 50 μL of each supernatant was used for every measurement with the Lactate Dehydrogenase Activity Kit (Sigma; MAK066). To determine enzyme activity, the absorbance at 450 nm (A450) was measured with the CLARIOstar plate reader (BMG Labtech). LDH activity were calculated following the manufacturer's instruction. CTMs that incubated with 0.2% H2O2 in medium for 30 minutes at 37° C. served as positive control.

[4] = system: CTMs obtained from human iPSC; assay: Stress response of CTMs obtained from human iPSC (contraction frequency, volume, lactate); format: cell-based; details: 200 μM PE
Description: After 10 days of culture, CTMs were treated with 200 μM Phenylephrine (PE), and in parallel, were cultured under conditions of hypoxia (3% O2). Videos of contracting CTMs were recorded for 1 min and analysed to observe the response. The contraction frequency was measured at day 3 (to obtain a short-term response) and day 20 (to obtain a long-term response). […] Human iPS cardiomyocytes (hiPS-CMs) were ordered from Fujifilm CDI and thawed before the culture. Human cardiac fibroblasts (hCFB) were cultured and trypsinized. The two cell types were mixed at a CM:FB ratio of 5:1 in plating medium (PM provided by CDI). The mixed cells were left to form cardiac tissue mimetics in 30 μL hanging drops containing PM with a density of 5000 hiPS-CMs and 1000 hCFB and incubated at 37° for four days. The cardiac tissue mimetics were then collected, and every single cardiac tissue mimetic was again distributed into each well of ultra-low-attachment (ULA) plates with maintenance medium (MM; provided by CDI). MM was changed every two days. After seven days, human IPS endothelial cells (hiPS-ECs) were thawed and added into each well at a CM:EC ratio of 2:1. A mixed medium of MM and EC growth medium (EGM; provided by CDI) at a 1:1 ratio was used and half of the medium was changed every second day. After 10 days cardiac tissue mimetics were harvested for further assays.

[5] = system: cardiac tissue mimetics (CTMs); assay: CTM vascularisation (GFP-HUVEC sprout length, thickness, branch points); format: cell-based, rat, human; details: 200 μM PE, 10 days, vs control; for filopodia formation in CTMs: FIG. 13; for vascularization / angiogenesis of CTMs: FIGS. 13, 14, 36
[6] = system: cardiac tissue mimetics (CTMs); assay: Contractility measurement of CTMs (spontaneous beats per minute; pacing at 1 Hz and 15 V); details: PE-treated vs control, electric pacing 1 Hz; FIG. 8
[7] = system: cardiac tissue mimetics (CTMs); assay: Fluorescence immunohistochemistry of CTMs (α-actinin, WGA, Atp5a1); format: cell-based, rat, human
Description: Cryosections of CTMs were stained with DAPI, anti-α-Actinin and Alexa Flour conjugate of Wheat-Germ-Agglutinin. Area of 100 cardiomyocytes per condition were quantified using ImageJ. In case of whole mount stainings, CTMs were permeabilized with 0.2% Triton® X-100 in PBS for 1 hour at room temperature followed by blocking with 5% horse serum (Sigma-Aldrich) in PBS for 30 minutes at room temperature. Primary antibodies (see Table 1) were diluted 1:200 in 5% horse serum and incubated over night at 4° C. Before using the secondary antibody (see table below), CTMs were washed three times with PBS containing 1% Tween 20 and 0.002% Triton® X-100 (referred as PBT from here after) for 20 minutes at room temperature. Secondary antibodies (1:500) and DAPI (1:1000; Carl-Roth GmbH & Co. KG) were diluted in 5% horse serum together and incubated for 4 hours at room temperature in the dark. […] Cryo-sections were prepared by embedding fixed spheroids in O.C.T medium (Tissue-Tek), snap-freezing them in liquid nitrogen and cutting them in 10 μm thick sections. Sections were permeabilized and blocked for one hour in 0.1% Triton® X100 (in PBS+BSA). Primary antibody incubated with the sections diluted 1:50-1:100 in 1 mM MgCl2, 1 mM CaCl2, 0.1 mM MnCl2, 1% Triton® X-100 or 0.2% saponin over night at 4° C. […]

[8] = system: HUVEC spheroids; assay: Spheroid-based angiogenic sprouting assay; format: cell-based, human
Description: After 72 hours, cell culture supernatants were centrifuged (500×g, 5 minutes) to deplete dead cells and stored at −80° C.
Endothelial cell sprouting was studied by in vitro spheroid-based angiogenesis assays. In brief, HUVECs were trypsinized and transferred into a mixture of fully supplemented EBM™ and methylcellulose (80%:20%). […] After 24 hours, spheroids were collected, pelleted (200×g, 3 minuted), resuspended in methylcellulose supplemented with FCS (80%:20%) and embedded in a collagen Type-I gel (Corning; 354236). HUVEC spheroids were then either cultured with fully supplemented EBM (+/−VEGF (50 ng/mL; BioLegend; 583702) or +/−PE (200 μM)), maintenance medium or conditioned cell culture medium.

[9] = system: cardiac tissue mimetics (CTMs); assay: mRNA expression in CTMs (qPCR of titin isoforms, bulk RNA sequencing); format: cell-based, rat, human
Description: CTMs, heart tissues of neonatal pups and adult rats were collected into Lysing Matrix D tubes (MP Biomedical; 6913-500) and 700 μL of TriFast (VWR; 3010-100ML) was added. Cells and tissues were homogenized 3 times for 20 s following by 5 min. pause on ice. Total RNA was purified with the Direct-zol™ RNA MicroPrep kit (Zymo Research; R2060). The RNA concentration was determined by measuring absorption at 260 nm and 280 nm with the NanoDrop® ND 2000-spectrophotometer (Peq Lab).
cDNA was synthesized from 500 ng of total RNA with EcoDry Premix RNA to cDNA (Random Hexamers) (Clontech; 639546). qPCR was performed using 10 μL of iTaq™ Universal SYBR® Green Supermix (Bio-Rad; 172-5124), 1 μL of 10 μmol/L forward and reverse primer each, 1 μL of cDNA template and 7 μL of H2O in a Bio-Rad CFX96 Connect Real-Time PCR system. Primers using to quantify mRNA expression were ordered from Metabion (Table 2).
Bulk RNA sequencing was performed as previously described (J. U. G. Wagner, E. Chavakis, E. M. Rogg, M. Muhly-Reinholz, S. F. Glaser, S. Gunther, D. John, F. Bonini, A. M. Zeiher, L. Schaefer, M. J. Hannocks, R. A. Boon, S. Dimmeler, 2018, Arterioscler Thromb Vasc Biol 38(5), 1170-1177). […] Sequencing was performed on the NextSeq500 instrument (IIlumina) using v2 chemistry, resulting in minimum of 30M reads per library with 1×75 bp single end setup. […]

CNC[C@H](O)c1cccc(O)c1 [PE, phenylephrine]
glycolysis (basal extracellular acidification rate) ([1]; FIG. 11): reduction | oxidation metabolism (oxygen consumption rate) ([1]; FIGS. 9-10): increased | CTM growth (size as volume) [2]: significantly increased | extracellular lactate dehydrogenase (LDH) as marker of necrosis ([3]; mature CTMs with PE vs untreated control, FIG. 35): failed to reveal differences | cytotoxicity in CTMs (p-γ-H2AX staining, LDH activity) ([3]; phenylephrine-treated mature CTMs, FIGS. 34 and 35): no cytotoxicity | contraction frequency ([4]; day 3, FIG. 41): significantly increased | volume of the CTMs ([4]; day 3, FIG. 42): no significant change | lactate concentration in culture media ([4]; day 3, FIG. 43): significant increase | contraction frequency ([4]; day 20, FIG. 41): significantly increased | lactate concentration in culture media ([4]; day 20, FIG. 43): significant increase | volume of the CTMs ([4]; day 20, vs control, FIG. 42): significant increase | filopodia formation in CTMs [5]: more filopodia | filopodia formation in CTMs ([5]; listed as phenylephrine): induces | number of branch points in CTMs ([5]; FIG. 14): increased | tube length (accumulated sprout length) in CTMs ([5]; FIG. 14): increased | tube thickness in CTMs ([5]; FIG. 14): increased | vascularization / angiogenesis of CTMs [5]: significantly augmented | vascularization / angiogenesis of CTMs ([5]; listed as phenylephrine): induces | contractile amplitude in paced CTMs [6]: significant increase; also recorded: augment | cardiomyocyte maturation and hypertrophy (sarcomeric α-actinin staining, sarcomere organization and density) ([7]; 200 μM PE, 10 days, vs control, FIGS. 5-7): significantly increased | mitochondrial function and mitochondrial density ([7]; PE-treated vs control CTMs, Atp5a1 staining, FIGS. 9-12): increased | EC spheroid growth / vascular network growth and branching (cumulative sprout length), direct treatment ([8]; HUVEC spheroids, 200 μM PE or 50 ng/mL VEGF, 24 hours, FIG. 15): did not impact | EC growth and sprouting with conditioned medium of PE-stimulated CM ([8]; neonatal rat CM treated with PE 72 hours, supernatant on HUVEC spheroids 24 hours, FIG. 17): significantly increase | EC sprouting with conditioned medium of PE-stimulated FB ([8]; neonatal rat FB treated with PE 72 hours, supernatant on HUVEC spheroids 24 hours, FIG. 38): no effect | KEGG gene sets for adrenergic signaling, metabolism and contractility ([9]; PE stimulation vs untreated CTMs, FIG. 33): enrichment and elevated expression | titin isoform mRNA expression (N2B, N2BA2) ([9]; PE-treated vs control CTMs, FIG. 6): shift towards adult-type titin isoform expression
